This is an account of results in paper PMC8537953 (Viruses, 2021).

The conditions of data set [1]: cited from earlier work.
Data set [2] deals with SARS-CoV-2. Conditions: read-out: EC50 against SARS-CoV-2; cited from earlier work.
Data set [3] can be described thus: in vitro. To be noted: human.
The conditions of data set [4]: human, in vivo, cited from earlier work.
The subject of data set [5] is influenza A. Conditions: read-out: in vitro EC50 (influenza A); cited from earlier work.
Data set [6] deals with SARS-CoV-2. As to the kind of experiment: microbe, parasite or virus in culture. It is filed as cell-based. Conditions: Severe acute respiratory syndrome coronavirus 2, Vero C1008, 6 h, read-out: % inhibition of SARS-CoV-2 infection, post-entry treatment.

Where two headings read alike, the source gives them in different places. Bounds are passed on as bounds.

Turning to `CC12CC3CC(C)(C1)CC(N)(C3)C2` [Memantine, memantine], in data set [1] (ref FDA reports), the “PPB, plasma protein binding, % of compound bound to plasma proteins” value was 45%.

What is called EC50 is the concentration at which the effect is half-maximal. As for `CCC(CC)COC(=O)[C@H](C)N[P@](=O)(OC[C@H]1O[C@@](C#N)(c2ccc3c(N)ncnn23)[C@H](O)[C@@H]1O)Oc1ccccc1` [Remdesivir, remdesivir], the 50% effective concentration (EC50) in data set [2] is 2.5 µM.

The viability is a read-out of living cells in per cent, often relative to untreated cells. A higher viability goes with less harm to the cells. For orientation: Cmax means the maximum level reached in the sampled fluid or tissue. As to `NC12CC3CC(CC(C3)C1)C2` [Amantadine, amantadine], in data set [1] (plasma), the “PPB, plasma protein binding, % of compound bound to plasma proteins” value is on record as 67%. This compound registered a viability in data set [3] of more than 50%. The Cmax in data set [4] (200 mg) was 2.7 µM. Besides, the EC50 in data set [5] is 16 µM.

By inhibition is commonly meant the relative decrease from the control value, in per cent. Consider `CC(N)C12CC3CC(CC(C3)C1)C2` (centres unmarked) [Rimantadine, rimantadine], for which the inhibition at 230 µM in data set [6] is more than 99%. The Cmax in data set [4] was 2.2 µM.
